Oligonucleotides are written 5' to 3', each unit as a sugar letter and its base; * is a phosphorothioate linkage, no mark a phosphodiester; rarer units and linkages stand in square brackets, end groups in braces. Plain capitals give the bases only. e = 2'-O-(2-methoxyethyl) (MOE); [5mC] = 5-methylcytosine; d = 2'-deoxy (DNA)
These substances were tested on human CD40 mRNA (assay: Inhibition of CD40 mRNA levels by oligonucleotides (real-time RT-PCR)). Settings: 2'-MOE gapmers, 18 nucleotides, phosphorothioate throughout; averaged from three experiments.
Type: cell-based
Design: concentration or dose not given beside the values
Method: When cells reach about 80% confluency, they are treated with oligonucleotide. For cells grown in 96-well plates, wells are washed once with 200 μl Opti-MEM-1 reduced-serum medium (Life Technologies) and then treated with 130 μl of Opti-MEM-1 containing 3.75 μg/ml LIPOFECTIN (Life Technologies) and the desired oligonucleotide at a final concentration of 150 nM. After 4 hours of treatment, the medium was replaced with fresh medium. Cells were harvested 16 hours after oligonucleotide treatment.
Poly(A)+ mRNA was isolated according to Miura et al. (Clin. Chem., 1996, 42, 1758). Briefly, for cells grown on 96-well plates, growth medium was removed from the cells and each well was washed with 200 ul cold PBS. 60 ul lysis buffer (10 mM Tris-HCl, pH 7.6, 1 mM EDTA, 0.5 M NaCl, 0.5% NP-40, 20 mM vanadyl-ribonucleoside complex) was added to each well, the plate was gently agitated and then incubated at room temperature for five minutes. 55 ul of lysate was transferred to Oligo d(T) coated 96 well plates (AGCT Inc., Irvine, Calif.). Plates were incubated for 60 minutes at room temperature, washed 3 times with 200 ul of wash buffer (10 mM Tris-HCl pH 7.6, 1 mM EDTA, 0.3 M NaCl). After the final wash, the plate was blotted on paper towels to remove excess wash buffer and then air-dried for 5 minutes. 60 ul of elution buffer (5 mM Tris-HCl pH 7.6), preheated to 70° C. was added to each well, the plate was incubated on a 90° hot plate for 5 minutes, and the eluate then transferred to a fresh 96 well plate. Cells grown on 100 mm or other standard plates may be treated similarly, using appropriate volumes of all solutions.
Quantitation of CD40 mRNA levels was determined by real-time PCR (RT-PCR) using the ABI PRISM 7700 Sequence Detection System (PE-Applied Biosystems, Foster City, Calif.) according to manufacturer's instructions. This is a closed-tube, non-gel-based, fluorescence detection system which allows high-throughput quantitation of polymerase chain reaction (PCR) products in real-time.
As opposed to standard PCR, in which amplification products are quantitated after the PCR is completed, products in RT-PCR are quantitated as they accumulate. This is accomplished by including in the PCR reaction an oligonucleotide probe that anneals specifically between the forward and reverse PCR primers, and contains two fluorescent dyes. A reporter dye (e.g., JOE or FAM, PE-Applied Biosystems, Foster City, Calif.) is attached to the 5′ end of the probe and a quencher dye (e.g., TAMRA, PE-Applied Biosystems, Foster City, Calif.) is attached to the 3′ end of the probe. When the probe and dyes are intact, reporter dye emission is quenched by the proximity of the 3′ quencher dye. During amplification, annealing of the probe to the target sequence creates a substrate that can be cleaved by the 5′-exonuclease activity of Taq polymerase.
With each cycle, additional reporter dye molecules are cleaved from their respective probes, and the fluorescence intensity is monitored at regular (six-second) intervals by laser optics built into the ABI PRISM 7700 Sequence Detection System. In each assay, a series of parallel reactions containing serial dilutions of mRNA from untreated control samples generates a standard curve that is used to quantitate the percent inhibition after antisense oligonucleotide treatment of test samples.
RT-PCR reagents were obtained from PE-Applied Biosystems, Foster City, Calif. RT-PCR reactions were carried out by adding 25 ul PCR cocktail (1× Taqman buffer A, 5.5 mM MgCl2, 300 uM each of dATP, dCTP and dGTP, 600 uM of dUTP, 100 nM each of forward primer, reverse primer, and probe, 20 U RNAse inhibitor, 1.25 units AmpliTaq Gold, and 12.5 U MuLV reverse transcriptase) to 96 well plates containing 25 ul poly(A) mRNA solution. […]
With “19211 (DNA e[5mC]*e[5mC]*eA*eG*dG*dC*dG*dG*dC*dA*dG*dG*dA*dC*e[5mC]*eA*e[5mC]*eT; antisense) [compound 19211]” the “% Inhibition (Inhibition of CD40 mRNA Levels by Chimeric Phosphorothioate Oligonucleotides)” value (shortened to “% Inhibition”) was 75.71%.
With “19212 (DNA eG*eA*e[5mC]*e[5mC]*dA*dG*dG*dC*dG*dG*dC*dA*dG*dG*eA*e[5mC]*e[5mC]*eA; antisense) [compound 19212]” the “% Inhibition” value was 77.23%.
With “19213 (DNA eA*eG*eG*eT*dG*dA*dG*dA*dC*dC*dA*dG*dG*dC*eG*eG*e[5mC]*eA; antisense) [compound 19213]” the “% Inhibition” value was 80.82%.
With “19214 (DNA e[5mC]*eA*eG*eA*dG*dG*dC*dA*dG*dA*dC*dG*dA*dA*e[5mC]*e[5mC]*eA*eT; antisense) [compound 19214]” the “% Inhibition” value was 23.68%.
In the case of “19215 (DNA eG*e[5mC]*eA*eG*dA*dG*dG*dC*dA*dG*dA*dC*dG*dA*eA*e[5mC]*e[5mC]*eA; antisense) [compound 19215]”, the “% Inhibition” value is reported as 45.97%.
With “19216 (DNA eG*e[5mC]*eA*eA*dG*dC*dA*dG*dC*dC*dC*dC*dA*dG*eA*eG*eG*eA; antisense) [compound 19216]” the “% Inhibition” value was 65.80%.
With “19217 (DNA eG*eG*eT*e[5mC]*dA*dG*dC*dA*dA*dG*dC*dA*dG*dC*e[5mC]*e[5mC]*e[5mC]*eA; antisense) [compound 19217]” the “% Inhibition” value was 74.73%.
In the case of “19218 (DNA eG*eA*e[5mC]*eA*dG*dC*dG*dG*dT*dC*dA*dG*dC*dA*eA*eG*e[5mC]*eA; antisense) [compound 19218]”, the “% Inhibition” value is reported as 67.21%.
For “19219 (DNA eG*eA*eT*eG*dG*dA*dC*dA*dG*dC*dG*dG*dT*dC*eA*eG*e[5mC]*eA; antisense) [compound 19219]”, the “% Inhibition” value was 65.14%.
“19220 (DNA eT*e[5mC]*eT*eG*dG*dA*dT*dG*dG*dA*dC*dA*dG*dC*eG*eG*eT*e[5mC]; antisense) [compound 19220]” was tested, and the “% Inhibition” value was 78.71%.
With “19221 (antisense eG*eG*eT*eG*dG*dT*dT*dC*dT*dG*dG*dA*dT*dG*eG*eA*e[5mC]*eA) [compound 19221]” the “% Inhibition” value was 81.33%.
“19222 (antisense eG*eT*eG*eG*dG*dT*dG*dG*dT*dT*dC*dT*dG*dG*eA*eT*eG*eG) [compound 19222]” was tested, and the “% Inhibition” value was 57.79%.
For “19223 (antisense eG*e[5mC]*eA*eG*dT*dG*dG*dG*dT*dG*dG*dT*dT*dC*eT*eG*eG*eA) [compound 19223]”, the “% Inhibition” value was 73.70%.
In the case of “19224 (antisense e[5mC]*eA*e[5mC]*eA*dA*dA*dG*dA*dA*dC*dA*dG*dC*dA*e[5mC]*eT*eG*eA) [compound 19224]”, the “% Inhibition” value is reported as 40.25%.
“19225 (antisense e[5mC]*eT*eG*eG*dC*dA*dC*dA*dA*dA*dG*dA*dA*dC*eA*eG*e[5mC]*eA) [compound 19225]” was tested, and the “% Inhibition” value was 60.11%.
With “19226 (antisense eT*e[5mC]*e[5mC]*eT*dG*dG*dC*dT*dG*dG*dC*dA*dC*dA*eA*eA*eG*eA) [compound 19226]” the “% Inhibition” value was 10.18%.
“19227 (antisense e[5mC]*eT*eG*eT*dC*dC*dT*dG*dG*dC*dT*dG*dG*dC*eA*e[5mC]*eA*eA) [compound 19227]” was tested, and the “% Inhibition” value was 24.37%.
With “19228 (antisense e[5mC]*eT*e[5mC]*eA*dC*dC*dA*dG*dT*dT*dT*dC*dT*dG*eT*e[5mC]*e[5mC]*eT) [compound 19228]” the “% Inhibition” value was 22.30%.
For “19229 (antisense eT*e[5mC]*eA*e[5mC]*dT*dC*dA*dC*dC*dA*dG*dT*dT*dT*e[5mC]*eT*eG*eT) [compound 19229]”, the “% Inhibition” value was 40.64%.
With “19230 (antisense eG*eT*eG*e[5mC]*dA*dG*dT*dC*dA*dC*dT*dC*dA*dC*e[5mC]*eA*eG*eT) [compound 19230]” the “% Inhibition” value was 82.04%.
In the case of “19231 (antisense eA*e[5mC]*eT*e[5mC]*dT*dG*dT*dG*dC*dA*dG*dT*dC*dA*e[5mC]*eT*e[5mC]*eA) [compound 19231]”, the “% Inhibition” value is reported as 37.59%.
For “19232 (antisense e[5mC]*eA*eG*eT*dG*dA*dA*dC*dT*dC*dT*dG*dT*dG*e[5mC]*eA*eG*eT) [compound 19232]”, the “% Inhibition” value was 40.26%.
With “19233 (antisense eA*eT*eT*e[5mC]*dC*dG*dT*dT*dT*dC*dA*dG*dT*dG*eA*eA*e[5mC]*eT) [compound 19233]” the “% Inhibition” value was 56.03%.
In the case of “19234 (antisense eG*eA*eA*eG*dG*dC*dA*dT*dT*dC*dC*dG*dT*dT*eT*e[5mC]*eA*eG) [compound 19234]”, the “% Inhibition” value is reported as 32.21%.
In the case of “19235 (antisense eT*eT*e[5mC]*eA*dC*dC*dG*dC*dA*dA*dG*dG*dA*dA*eG*eG*e[5mC]*eA) [compound 19235]”, the “% Inhibition” value is reported as 61.03%.

Same assay, conditions: oligodeoxynucleotides with phosphorothioate backbones throughout; averages from three experiments
“18697 (DNA dT*dG*dG*dA*dG*dC*dA*dG*dC*dA*dG*dT*dG*dT*dT*dG*dG*dA; antisense) [compound 18697]” was tested, and the “% INHIB. (Inhibition of CD40 mRNA Levels by Phosphorothioate Oligodeoxynucleotides)” value was 0.00%.
In the case of “18698 (DNA dG*dT*dA*dA*dA*dG*dT*dC*dT*dC*dC*dT*dG*dC*dA*dC*dT*dG; antisense) [compound 18698]”, the “% INHIB. (Inhibition of CD40 mRNA Levels by Phosphorothioate Oligodeoxynucleotides)” value is reported as 0.00%.
In the case of “18699 (DNA dT*dG*dG*dC*dA*dT*dC*dC*dA*dT*dG*dT*dA*dA*dA*dG*dT*dC; antisense) [compound 18699]”, the “% INHIB. (Inhibition of CD40 mRNA Levels by Phosphorothioate Oligodeoxynucleotides)” value is reported as 0.00%.
For “18700 (DNA dC*dG*dG*dT*dT*dG*dG*dC*dA*dT*dC*dC*dA*dT*dG*dT*dA*dA; antisense) [compound 18700]”, the “% INHIB. (Inhibition of CD40 mRNA Levels by Phosphorothioate Oligodeoxynucleotides)” value was 0.00%.
In the case of “18701 (DNA dC*dT*dC*dT*dT*dT*dG*dC*dC*dA*dT*dC*dC*dT*dC*dC*dT*dG; antisense) [compound 18701]”, the “% INHIB. (Inhibition of CD40 mRNA Levels by Phosphorothioate Oligodeoxynucleotides)” value is reported as 4.38%.
With “18702 (DNA dC*dT*dG*dT*dC*dT*dC*dT*dC*dC*dT*dG*dC*dA*dC*dT*dG*dA; antisense) [compound 18702]” the “% INHIB. (Inhibition of CD40 mRNA Levels by Phosphorothioate Oligodeoxynucleotides)” value was 0.00%.
For “18703 (DNA dG*dG*dT*dG*dC*dA*dG*dC*dC*dT*dC*dA*dC*dT*dG*dT*dC*dT; antisense) [compound 18703]”, the “% INHIB. (Inhibition of CD40 mRNA Levels by Phosphorothioate Oligodeoxynucleotides)” value was 0.00%.
For “18704 (DNA dA*dA*dC*dT*dG*dC*dC*dT*dG*dT*dT*dT*dG*dC*dC*dC*dA*dC; antisense) [compound 18704]”, the “% INHIB. (Inhibition of CD40 mRNA Levels by Phosphorothioate Oligodeoxynucleotides)” value was 33.89%.
For “18705 (DNA dC*dT*dT*dC*dT*dG*dC*dC*dT*dG*dC*dA*dC*dC*dC*dC*dT*dG; antisense) [compound 18705]”, the “% INHIB. (Inhibition of CD40 mRNA Levels by Phosphorothioate Oligodeoxynucleotides)” value was 0.00%.
In the case of “18706 (DNA dA*dC*dT*dG*dA*dC*dT*dG*dG*dG*dC*dA*dT*dA*dG*dC*dT*dC; antisense) [compound 18706]”, the “% INHIB. (Inhibition of CD40 mRNA Levels by Phosphorothioate Oligodeoxynucleotides)” value is reported as 0.00%.
